ChEMBL document CHEMBL1201862, “PubChem BioAssay data set” (2004)
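Values below derive from 48-hour exposures of cells grown in 96-well plates, with endpoints linearly interpolated between the two concentrations bracketing the appropriate inhibition level. GI50 is the concentration that inhibits growth by half.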 The source made the active and inactive calls. No stated cut-off is given here; in the data, active = GI50 up to about 1.1 µM and inactive = higher.

Assays:
Experiment in all cases: inhibition of tumour cell growth, NCI panel, 48 h
LOX IMVI = tested on: LOX IMVI
UACC-62 = tested on: UACC-62
CAKI-1 = tested on: CAKI-1
SF-268 = tested on: SF-268
Malme-3M = tested on: Malme-3M
SK-MEL-2 = tested on: SK-MEL-2
EKVX = tested on: EKVX
RXF 393 = tested on: RXF 393
U-251 = tested on: U-251
SK-MEL-5 = tested on: SK-MEL-5
UO-31 = tested on: UO-31
A498 = tested on: A498
HCT-15 = tested on: HCT-15
OVCAR-4 = tested on: OVCAR-4
MCF7 = tested on: MCF7
SR = tested on: SR
RPMI-8226 = tested on: RPMI-8226
MDA-MB-231 = tested on: MDA-MB-231
COLO 205 = tested on: COLO 205
Hs-578T = tested on: Hs-578T

Compound | GI50 (LOX IMVI) | GI50 (UACC-62) | GI50 (CAKI-1) | GI50 (SF-268) | GI50 (Malme-3M) | GI50 (SK-MEL-2) | GI50 (EKVX) | GI50 (RXF 393) | GI50 (U-251) | GI50 (SK-MEL-5) | GI50 (UO-31) | GI50 (A498) | GI50 (HCT-15) [µM] | GI50 (OVCAR-4) | GI50 (MCF7) | GI50 (SR) | GI50 (RPMI-8226) | GI50 (MDA-MB-231) | GI50 (COLO 205) | GI50 (Hs-578T)
O=C(OCC1CC(C2(O)CCCCC2)C(=O)O1)c1ccccc1 (centres undefined) | > 100 µM (inactive) | > 100 µM (inactive) | > 100 µM (inactive) | > 100 µM (inactive) | > 100 µM (inactive) | > 100 µM (inactive) | > 100 µM (inactive) | > 100 µM (inactive) | > 100 µM (inactive) | > 100 µM (inactive) | 55.8 µM (inactive) | > 100 µM (inactive) | > 100 | > 100 µM (inactive) | > 100 µM (inactive) | > 100 µM (inactive) | > 100 µM (inactive) | > 100 µM (inactive) | > 100 µM (inactive) | 
CCOP(=O)(OCC)/C(C#N)=C/c1cccn1C(C)C | > 100 µM (inactive) | > 100 µM (inactive) | > 100 µM (inactive) | > 100 µM (inactive) | > 100 µM (inactive) | > 100 µM (inactive) | > 100 µM (inactive) | > 100 µM (inactive) | > 100 µM (inactive) | > 100 µM (inactive) | > 100 µM (inactive) | > 100 µM (inactive) | > 100 |  | > 10 µM (inactive) | > 100 µM (inactive) |  | > 100 µM (inactive) | > 100 µM (inactive) | 
O=C(Cn1c2c(c3ccccc31)CCCC2)N1CCOCC1 | > 100 µM (inactive) | > 100 µM (inactive) | > 100 µM (inactive) | > 100 µM (inactive) | > 100 µM (inactive) | > 100 µM (inactive) | > 100 µM (inactive) |  |  | > 100 µM (inactive) | 25.9 µM (inactive) | > 100 µM (inactive) | > 100 | 44.4 µM (inactive) | > 100 µM (inactive) |  | > 100 µM (inactive) |  | > 100 µM (inactive) | 35.2 µM (inactive)
C[C@H](O)CCC(=O)c1ccoc1 | > 100 µM (inactive) | > 100 µM (inactive) | > 100 µM (inactive) | > 100 µM (inactive) | > 100 µM (inactive) | > 100 µM (inactive) | > 100 µM (inactive) | > 100 µM (inactive) | > 100 µM (inactive) | > 100 µM (inactive) | > 100 µM (inactive) | > 100 µM (inactive) | > 100 | > 100 µM (inactive) |  | > 100 µM (inactive) | > 100 µM (inactive) |  | > 100 µM (inactive) | 
O=C(O)CC(NC(=O)/C(=C/c1ccccc1O)NC(=O)c1ccccc1)C(=O)O (centres undefined) | > 100 µM (inactive) | 42.5 µM (inactive) | 34.7 µM (inactive) |  | 61.7 µM (inactive) | > 100 µM (inactive) | 83.9 µM (inactive) |  | 54.7 µM (inactive) | > 100 µM (inactive) | 43.4 µM (inactive) | 50.5 µM (inactive) | 59.4 | > 100 µM (inactive) | 34 µM (inactive) | 29.8 µM (inactive) | 82.6 µM (inactive) | > 100 µM (inactive) | > 100 µM (inactive) | 
CC(=O)O[C@H]1CCC2[C@@H]3CCC4Cc5nc6c(nc5C[C@]4(C)C3CC[C@@]21C)CC1CC[C@@H]2C(CC[C@@]3(C)C2CC[C@@H]3C(C)CCCC(C)C)[C@@]1(C)C6 (some centres undefined) | > 100 µM (inactive) | > 100 µM (inactive) |  | > 100 µM (inactive) | > 100 µM (inactive) | > 100 µM (inactive) | > 100 µM (inactive) | > 100 µM (inactive) | > 100 µM (inactive) | > 100 µM (inactive) | > 100 µM (inactive) |  | > 100 | > 100 µM (inactive) | > 100 µM (inactive) |  | > 100 µM (inactive) | > 100 µM (inactive) | > 100 µM (inactive) | > 100 µM (inactive)
NC(=S)N1N=C2c3ccccc3CC[C@@H]2[C@@H]1c1ccccc1 | 5.86 µM (inactive) | 4.74 µM (inactive) | 5.01 µM (inactive) | 10.2 µM (inactive) | 5.4 µM (inactive) | 5.92 µM (inactive) | 16.3 µM (inactive) | 4.95 µM (inactive) | 3.98 µM (inactive) | 3.82 µM (inactive) | 14.2 µM (inactive) | 13.2 µM (inactive) | 3.33 | 23.8 µM (inactive) |  | 1.47 µM (inactive) | 5.61 µM (inactive) |  | 3.72 µM (inactive) | 
NC(=O)c1csc(-c2ccc(CO)o2)n1 | > 100 µM (inactive) | > 100 µM (inactive) | > 100 µM (inactive) | > 100 µM (inactive) | > 100 µM (inactive) | > 100 µM (inactive) | > 100 µM (inactive) | > 100 µM (inactive) | > 100 µM (inactive) | > 100 µM (inactive) | > 100 µM (inactive) | > 100 µM (inactive) | > 100 | > 100 µM (inactive) | > 100 µM (inactive) | > 100 µM (inactive) | > 100 µM (inactive) | > 100 µM (inactive) | > 100 µM (inactive) | 
